Laboratory results reported in patent US20240116985A1, “STAPLED PEPTIDES AND METHODS THEREOF” (priority 2020, published 2024).

experiment: CHI Log D procedure; type: physicochemical; settings: pH 7.4

SMILES	CHI Log D	logD
CC(=O)N[C@@H](Cc1ccccc1)C(=O)N[C@@H](CC(=O)O)C(=O)N[C@]1(C)CCN(C)C(=O)OCC=CCCCCC[C@@](C)(C(=O)N[C@@H](C)C(=O)N[C@@H](Cc2ccccc2)C(=O)N[C@@H](Cc2c[nH]c3ccccc23)C(=O)N[C@@H](CCC(N)=O)C(N)=O)NC(=O)[C@H](Cc2ccccc2)NC(=O)[C@H](C)NC(=O)[C@H](C)NC(=O)[C@H](CC(=O)O)NC(=O)[C@H](CC(=O)O)NC(=O)[C@H](C)NC1=O (single isomer, unassigned) [I-50, Ac-Phe-Asp-RdN-Ala-Asp-Asp-Ala-Ala-Phe-S7-Ala-Phe-Trp-Gln-NH2]	1.201	–
CC(=O)N[C@@H](Cc1ccccc1)C(=O)N[C@@H](CC(=O)O)C(=O)N[C@@H](C)C(=O)N[C@]1(C)CCCCCCC=CCOC(=O)N2CC[C@@](C(=O)N[C@@H](Cc3ccccc3)C(=O)N[C@@H](Cc3c[nH]c4ccccc34)C(=O)N[C@@H](CCC(N)=O)C(N)=O)(C2)NC(=O)[C@H](C(C)C)NC(=O)[C@H](Cc2ccccc2)NC(=O)[C@H](C)NC(=O)[C@H](C)NC(=O)[C@H](CCC(N)=O)NC(=O)[C@H](CC(=O)O)NC1=O [I-59, Ac-Phe-Asp-Ala-R8-Asp-Gln-Ala-Ala-Phe-Val-PyrS-Phe-Trp-Gln-NH2]	1.531	–

Second part, the compound after the results:

CHI Log D	logD	SMILES
1.991	–	CC(=O)N1CCC[C@]12CC=CCCCC1(CCCC=CCCCCCC[C@@](C)(C(=O)N[C@@H](Cc3ccccc3)C(=O)N[C@@H](Cc3c[nH]c4ccccc34)C(=O)N[C@@H](CCC(N)=O)C(N)=O)NC(=O)[C@H](C(C)C)NC(=O)[C@H](Cc3ccccc3)NC(=O)[C@H](C)NC(=O)[C@H](C)NC(=O)[C@H](CC(=O)O)NC(=O)[C@H](CC(=O)O)NC1=O)NC(=O)[C@H](C)NC(=O)[C@H](CCC(=O)O)NC2=O (stereo partly drawn) [I-280, Ac-PL3-Glu-Ala-B5-Asp-Asp-Ala-Ala-Phe-Val-S8-Phe-Trp-Gln-NH2]
2.867	–	CC(=O)N1CCC[C@]12CC=CCCCC1(CCCC=CCCCCCC[C@@](C)(C(=O)N[C@@H](Cc3ccccc3)C(=O)N[C@@H](Cc3c[nH]c4ccccc34)C(=O)N[C@@H](CCC(N)=O)C(N)=O)NC(=O)[C@H](C(C)C)NC(=O)[C@H](Cc3ccccc3)NC(=O)[C@H](C)NC(=O)[C@H](C)NC(=O)[C@@](C)(CC(C)C)NC(=O)[C@H](CC(=O)O)NC1=O)NC(=O)[C@H](C)NC(=O)[C@H](CC(=O)O)NC2=O (single isomer, unassigned) [I-216, Ac-PL3-Asp-Ala-B5-Asp-DaMeL-Ala-Ala-Phe-Val-S8-Phe-Trp-Gln-NH2]
2.035	2.0	CC(=O)N1CCC[C@]12CC=CCCCC1(CCCC=CCCCOC(=O)N3CC[C@@](C(=O)N[C@@H](Cc4ccsc4)C(=O)N[C@@H](Cc4csc5ccccc45)C(=O)N[C@@H](CCC(N)=O)C(N)=O)(C3)NC(=O)[C@H](CC(N)=O)NC(=O)[C@H](Cc3ccccc3)NC(=O)[C@H](C)NC(=O)[C@H](C)NC(=O)[C@H](CC(=O)O)NC(=O)[C@H](CC(=O)O)NC1=O)NC(=O)[C@H](CC(C)(C)C)NC(=O)[C@H](CC(=O)O)NC2=O (stereo partly drawn) [I-687, Ac-PL3-Asp-Npg-B5-Asp-Asp-Ala-Ala-Phe-Asn-PyrS2-3Thi-BztA-Gln-NH2]
1.274	–	COc1cccc(C[C@H](NC(=O)[C@]23CCN(C2)C(=O)OCC=CCCCCCC[C@@](C)(NC(=O)[C@H](C)NC(=O)[C@H](CC(=O)O)NC(=O)[C@H](Cc2ccccc2)NC(C)=O)C(=O)N[C@@H](CC(=O)O)C(=O)N[C@@H](CC(=O)O)C(=O)N[C@@H](C)C(=O)N[C@@H](C)C(=O)N[C@@H](Cc2ccccc2)C(=O)N[C@@H](C(C)C)C(=O)N3)C(=O)N[C@@H](Cc2c[nH]c3ccccc23)C(=O)N[C@@H](CCC(N)=O)C(N)=O)c1 (single isomer, unassigned) [I-102, Ac-Phe-Asp-Ala-R8-Asp-Asp-Ala-Ala-Phe-Val-PyrS-3OMeF-Trp-Gln-NH2]
2.011	–	CC(=O)N1CCC[C@]12CC=CCCCC1(CCCC=CCCCCCC[C@@](C)(C(=O)N[C@@H](Cc3ccccc3)C(=O)N[C@@H](Cc3c[nH]c4ccccc34)C(=O)N[C@@H](CCC(N)=O)C(N)=O)NC(=O)[C@H](C(C)C)NC(=O)[C@H](Cc3cccc(F)c3)NC(=O)[C@H](C)NC(=O)[C@H](C)NC(=O)[C@H](CC(=O)O)NC(=O)[C@H](CC(=O)O)NC1=O)NC(=O)[C@H](C)NC(=O)[C@H](CC(=O)O)NC2=O (stereo partly drawn) [I-264, Ac-PL3-Asp-Ala-B5-Asp-Asp-Ala-Ala-3FF-Val-S8-Phe-Trp-Gln-NH2]

same assay, conditions: pH 7.4, CHI Log D

SMILES	chromatographic logD
CC(=O)N[C@@H](Cc1ccccc1)C(=O)N[C@@H](CC(=O)O)C(=O)N[C@@H](C)C(=O)N[C@]1(C)CCCN(C)C(=O)OCC=CCCC[C@@](C)(C(=O)N[C@@H](Cc2ccccc2)C(=O)N[C@@H](Cc2c[nH]c3ccccc23)C(=O)N[C@@H](CCC(N)=O)C(N)=O)NC(=O)[C@H](C(C)C)NC(=O)[C@H](Cc2ccccc2)NC(=O)[C@H](C)NC(=O)[C@H](C)NC(=O)[C@H](CC(=O)O)NC(=O)[C@H](CC(=O)O)NC1=O [I-27, Ac-Phe-Asp-Ala-ReN-Asp-Asp-Ala-Ala-Phe-Val-S5-Phe-Trp-Gln-NH2]	1.15
CC(=O)N[C@@H](Cc1ccccc1)C(=O)N[C@@H](CC(=O)O)C(=O)N[C@@H](C)C(=O)N[C@]1(C)CN(C)C(=O)OCC=CCCCCCC[C@@](C)(C(=O)N[C@@H](Cc2ccccc2)C(=O)N[C@@H](Cc2c[nH]c3ccccc23)C(=O)N[C@@H](CCC(N)=O)C(N)=O)NC(=O)[C@H](C(C)C)NC(=O)[C@H](Cc2ccccc2)NC(=O)[C@H](C)NC(=O)[C@H](C)NC(=O)[C@H](CC(=O)O)NC(=O)[C@H](CC(=O)O)NC1=O (single isomer, unassigned) [I-43, Ac-Phe-Asp-Ala-RgN-Asp-Asp-Ala-Ala-Phe-Val-S8-Phe-Trp-Gln-NH2]	1.31
CC(=O)N[C@@H](Cc1ccccc1)C(=O)N[C@@H](CC(=O)O)C(=O)N[C@]1(C)CCCCCCC=CCCC[C@@](C)(C(=O)N[C@@H](C)C(=O)N[C@@H](Cc2ccccc2)C(=O)N[C@@H](Cc2c[nH]c3ccccc23)C(=O)N[C@@H](CCC(N)=O)C(N)=O)NC(=O)[C@H](Cc2ccccc2)NC(=O)[C@H](C)NC(=O)[C@H](C)NC(=O)[C@H](CC(=O)O)NC(=O)[C@H](CC(=O)O)NC(=O)[C@H](C)NC1=O (single isomer, unassigned) [I-47, Ac-Phe-Asp-R8-Ala-Asp-Asp-Ala-Ala-Phe-S5-Ala-Phe-Trp-Gln-NH2]	1.28
CC(=O)N[C@@H](Cc1ccccc1)C(=O)N[C@@H](CC(=O)O)C(=O)N[C@@H](C)C(=O)N[C@]1(C)CCC=CCOC(=O)N(C)CCC[C@@](C)(C(=O)N[C@@H](Cc2ccccc2)C(=O)N[C@@H](Cc2c[nH]c3ccccc23)C(=O)N[C@@H](CCC(N)=O)C(N)=O)NC(=O)[C@H](C(C)C)NC(=O)[C@H](Cc2ccccc2)NC(=O)[C@H](C)NC(=O)[C@H](C)NC(=O)[C@H](CC(=O)O)NC(=O)[C@H](CC(=O)O)NC1=O [I-36, Ac-Phe-Asp-Ala-R4-Asp-Asp-Ala-Ala-Phe-Val-SeN-Phe-Trp-Gln-NH2]	1.13
CC(=O)N[C@@H](Cc1ccccc1)C(=O)N[C@@H](CC(=O)O)C(=O)N[C@@H](C)C(=O)N[C@]1(C)CCCCCCC=CCOC(=O)N2CC[C@@](C(=O)N[C@@H](Cc3ccccc3)C(=O)N[C@@H](Cc3c[nH]c4ccccc34)C(=O)N[C@@H](CCC(N)=O)C(N)=O)(C2)NC(=O)[C@H](C(C)C)NC(=O)[C@H](Cc2cccnc2)NC(=O)[C@H](C)NC(=O)[C@H](C)NC(=O)[C@H](CC(=O)O)NC(=O)[C@H](CC(=O)O)NC1=O (single isomer, unassigned) [I-87, Ac-Phe-Asp-Ala-R8-Asp-Asp-Ala-Ala-3PyrA-Val-PyrS-Phe-Trp-Gln-NH2]	1.15
CC(=O)N[C@@H](Cc1ccccc1)C(=O)N[C@@H](CC(=O)O)C(=O)N[C@@H](C)C(=O)N[C@]1(C)CCCCCCC=CCOC(=O)N2CC[C@@](C(=O)N[C@@H](CC3CCCCC3)C(=O)N[C@@H](Cc3c[nH]c4ccccc34)C(=O)N[C@@H](CCC(N)=O)C(N)=O)(C2)NC(=O)[C@H](C(C)C)NC(=O)[C@H](Cc2ccccc2)NC(=O)[C@H](C)NC(=O)[C@H](C)NC(=O)[C@H](CC(=O)O)NC(=O)[C@H](CC(=O)O)NC1=O (single isomer, unassigned) [I-60, Ac-Phe-Asp-Ala-R8-Asp-Asp-Ala-Ala-Phe-Val-PyrS-Cha-Trp-Gln-NH2]	1.36
CC(=O)N[C@@H](Cc1ccccc1)C(=O)N[C@@H](CC(=O)O)C(=O)N[C@@H](C)C(=O)N[C@]1(C)CCCCCCC=CCOC(=O)N2CC[C@@](C(=O)N[C@@H](CC3CCCC3)C(=O)N[C@@H](Cc3c[nH]c4ccccc34)C(=O)N[C@@H](CCC(N)=O)C(N)=O)(C2)NC(=O)[C@H](C(C)C)NC(=O)[C@H](Cc2ccccc2)NC(=O)[C@H](C)NC(=O)[C@H](C)NC(=O)[C@H](CC(=O)O)NC(=O)[C@H](CC(=O)O)NC1=O (single isomer, unassigned) [I-93, Ac-Phe-Asp-Ala-R8-Asp-Asp-Ala-Ala-Phe-Val-PyrS-CypA-Trp-Gln-NH2]	1.32

Continued, values first:

chromatographic logD	SMILES
2.13	CC(=O)N1CCC[C@]12CC=CCCCC1(CCCC=CCCCCCC[C@@](C)(C(=O)N[C@@H](Cc3ccc(Cl)cc3)C(=O)N[C@@H](Cc3c[nH]c4ccccc34)C(=O)N[C@@H](CCC(N)=O)C(N)=O)NC(=O)[C@H](C(C)C)NC(=O)[C@H](Cc3ccccc3)NC(=O)[C@H](C)NC(=O)[C@H](C)NC(=O)[C@H](CC(=O)O)NC(=O)[C@H](CC(=O)O)NC1=O)NC(=O)[C@H](C)NC(=O)[C@H](CC(=O)O)NC2=O (single isomer, unassigned) [I-312, Ac-PL3-Asp-Ala-B5-Asp-Asp-Ala-Ala-Phe-Val-S8-4C1F-Trp-Gln-NH2]
1.33	COc1cccc(C[C@H](NC(=O)[C@]23CCN(C2)C(=O)OCC=CCCCCCC[C@@](C)(NC(=O)[C@H](C)NC(=O)[C@H](CC(=O)O)NC(=O)[C@H](Cc2ccccc2)NC(C)=O)C(=O)N[C@@H](CC(=O)O)C(=O)N[C@@H](CC(=O)O)C(=O)N[C@@H](C)C(=O)N[C@@H](C)C(=O)N[C@@H](Cc2ccccc2)C(=O)N[C@@H](C(C)C)C(=O)N3)C(=O)N[C@@H](Cc2c[nH]c3ccccc23)C(=O)N[C@@H](CCC(N)=O)C(N)=O)c1 (single isomer, unassigned) [I-101, Ac-Phe-Asp-Ala-R8-Asp-Asp-Ala-Ala-Phe-Val-PyrS-3OMeF-Trp-Gln-NH2]
